Experiments:
[1] = tested on: human epidermal keratinocytes; assay: ATP secretion from human epidermal keratinocytes promoted by ionomycin; type: cell-based; conditions: for ATP secretion level relative to control solution (RLU ratio): 1 μM imeglimin, N=3 (FIG. 4)
Description: Human epidermal keratinocytes (Cryopreserved HEK, Lot 1758, Cell Applications Inc.) were cultured using an Epivita Keratinocyte Growth Medium Kit according to the manufacturer's instructions. The procedure was as follows. A supplement medium was added to a hydrocortisone-containing basal medium included in the medium preparation kit to prepare a complete medium. The medium in the dish was removed by aspiration. The cells were washed with 5 ml of BSS (Gbco), and then the BSS was removed by aspiration. After addition of 5 to 6 ml of trypsin/EDTA solution (Gbco), the dish was incubated at 37° C. for 2 minutes. After addition of 5 ml of trypsin neutralization solution, the resulting cell suspension was transferred into two 15-ml Falcon tubes, and centrifuged at 200×g for 5 minutes. The supernatant was removed by aspiration, and the pelleted cell cluster was suspended in 2 ml of the medium at 4.5×10^5 cells/ml. An aliquot of the resulting cell suspension was cryopreserved, while another aliquot was cultured and subjected to measurement.
ATP secretion by human epidermal keratinocytes (hereinafter referred to as “keratinocytes”) was measured. Regarding control solutions, Krebs-Ringer HEPES supplemented with 0.2% BSA and 25 mM glucose (hereinafter also referred to as “Krebs/Iono(−)”) was used as a negative control, and a solution prepared by adding 5 μM ionomycin to this solution (hereinafter also referred to as “Krebs/Iono(+)”) was used as a positive control for ATP secretion. Ionomycin is a Ca^2+ ionophore. Addition of ionomycin to cells is known to promote influx of extracellular Ca^2+ into the cells to increase the intracellular Ca^2+ concentration, resulting in enhancement of ATP secretion. Test solutions were prepared by adding clodronate to Krebs/Iono(−) or Krebs/Iono(+) to a final concentration of 0.1 μM (hereinafter also referred to as “Clo/Iono(−)” or “Clo/Iono(+)”, respectively) (N=3).
Keratinocytes were cultured at 2.5×10^4 cells/well in a 24-well plate at 37° C. in 5% CO2 for 4 days. The medium was removed by aspiration, replaced with Krebs/Iono(−) or Clo/Iono(−), and incubated at 37° C. for 6 hours. These solutions were then removed by aspiration, and the content of each well incubated with Krebs/Iono(−) was replaced with 300 μl of a control solution (Krebs/Iono(−) or Krebs/Iono(+)), while the content of each well incubated with Clo/Iono(−) was replaced with 300 μl of a test solution (Clo/Iono(−) or Clo/Iono(+)). After further incubation at 37° C. for 20 minutes, 200 μl of the supernatant was collected. The collected supernatant was immediately treated on a heat block at 95° C. for 10 minutes, to inactivate ectonucleotidase. ATP in the supernatant was quantified using a Dojindo ATP assay kit−Luminescence (manufactured by Dojindo Laboratories).
Keratinocytes were cultured in the same manner as in Example 1, and ATP secretion from the keratinocytes was measured. Krebs/Iono(−), or a solution prepared by adding 10 μM imeglimin, 0.1 μM eicosapentaenoic acid (EPA), 1 μM EPA, or 10 μM clodronate to Krebs/Iono(−) was used (N=4).
After culturing keratinocytes, the medium was removed by aspiration, and replaced with Krebs/Iono(−), or Krebs/Iono(−) supplemented with 10 μM imeglimin, 0.1 μM EPA, 1 μM EPA, or 10 μM clodronate, followed by incubation for 6 hours. Subsequently, the solution was replaced with either a control solution (Krebs/Iono(−) or Krebs/Iono(+)) or a test solution (Krebs/Iono(+) supplemented with 10 μM imeglimin, 0.1 μM EPA, 1 μM EPA, or 10 μM clodronate), followed by incubation at 37° C. for 20 minutes and then collection of 200 μl of the supernatant. The collected supernatant was immediately treated on a heat block at 95° C. for 10 minutes to inactivate ectonucleotidase. ATP in the supernatant was quantified using a Dojindo ATP assay kit—Luminescence (manufactured by Dojindo Laboratories). […]

[2] = tested on: α-SMA-positive cells (stellate cells) in mouse liver; assay: TAA-induced activation of HSCs in mice: α-SMA immunostaining of liver sections; type: in vivo
From the text: For immunohistochemical analysis, liver samples were fixed in 4% paraformaldehyde, embedded in paraffin, and then sectioned. The sections were stained with HE or PSR. In addition, the paraffin-embedded sections were subjected to immunostaining using an α-SMA monoclonal antibody (1:500, catalog No. A5228, manufactured by Sigma-Aldrich) and an F4/80 monoclonal antibody (1:200, catalog No. MCA497GA, manufactured by AbD Serotec). The cell specimens were observed using a microscope (BZ-X700 series, manufactured by Keyence) or a confocal laser microscope (FV1000, manufactured by Olympus Corporation). The number of F4/80-positive cells was counted in four high-power fields per section. The α-SMA-positive area and the PSR-positive area were quantified using the image analysis software Fiji-ImageJ (1.54f).
In accordance with Example 15, immunostaining of α-SMA in liver sections and observation by fluorescence microscopy were performed for the normal control group, the TAA group, and the TAA+IMG group, and for a TAA+Clo group, which was treated in the same manner as the TAA+IMG group except that clodronate, instead of imeglimin, was administered at 30 mg/kg by blending it in the drinking water from 1 week after the start of TAA administration.

[3] = tested on: human epidermal keratinocytes; assay: ATP secretion from keratinocytes upon LPS stimulation; type: cell-based; conditions: 18 hours, 10 μg/ml LPS, N=8 (FIG. 8)
Description: Keratinocytes were cultured in the same manner as in Example 1. Keratinocytes were cultured at 2.5×10^4 cells/well in a 24-well plate at 37° C. in 5% CO2 for 4 days. The medium was replaced with a test solution (Hanks' balanced salt solution (HBSS) (manufactured by Gibco) supplemented with imeglimin, metformin, or clodronate), and then incubation was performed at 37° C. in 5% CO2 for 18 hours. Thereafter, LPS (10 μg/ml) was added thereto, and incubation was further carried out for 10 minutes, followed by collection of 200 μl of the supernatant. The supernatant was immediately treated on a heat block at 95° C. for 10 minutes, and ATP in the supernatant was quantified using an ATP Assay Kit−Luminescence (manufactured by Dojindo) (N=8).

Structure (SMILES)	ATP secretion inhibitory effect ([1]; PEP at not less than 3 mM (data not shown))	ATP secretion level promoted by ionomycin ([1]; 0.1 μM clodronate, 6 h preincubation, 5 μM ionomycin, N=3 (FIG. 1))	TAA-induced increase in α-SMA-positive reaction ([2]; 30 mg/kg clodronate in drinking water (FIG. 29))	LPS-stimulated ATP secretion ([3]; 10 μM)	ATP secretion inhibitory effect at low concentration ([1]; 0.1 μM, 6 h preincubation, ionomycin)	ATP secretion level relative to control solution (RLU ratio) ([1]; incubation time 2 hours, ionomycin)	ATP secretion level relative to control solution (RLU ratio) ([1]; incubation time 6 hours, ionomycin)	ATP secretion inhibitory effect, comparison ([1]; 10 μM imeglimin vs 1 μM EPA and 10 μM clodronate)	ATP secretion inhibitory effect relative to metformin ([1]; 0.1, 1, 10 μM, 6 h preincubation, N=3 (FIG. 3))	α-SMA immunostaining, effect compared with clodronate ([2]; imeglimin 200 mg/kg p.o. (FIG. 30))	LPS-stimulated ATP secretion ([3]; 1 μM)
C=C(OP(=O)(O)O)C(=O)O [PEP, phosphoenolpyruvic acid]	relatively strong ATP secretion inhibitory effect	–	–	–	–	–	–	–	–	–	–
O=P(O)(O)C(Cl)(Cl)P(=O)(O)O [clodronate]	–	almost the same as those in Krebs/Iono(−) and Clo/Iono(−)	markedly suppressed	almost completely inhibited	–	–	–	–	–	–	–
C[C@@H]1N=C(N)NC(N(C)C)=N1 [imeglimin]	–	–	–	almost completely inhibited	exhibit an ATP secretion inhibitory effect	about 85%	about 40%	comparable to those of 1 μM EPA and 10 μM clodronate	slightly higher ATP secretion inhibitory effect than metformin	effect similar to that of clodronate	almost completely inhibited

Source: patent US20260306500A1, “METHOD OF INHIBITING ADENOSINE TRIPHOSPHATE SECRETION, METHOD OF INHIBITING HEPATIC STELLATE CELL ACTIVATION, METHOD OF DEACTIVATING HEPATIC STELLATE CELL, METHOD OF TREATING HEPATIC FIBROSIS, METHOD OF TREATING NON-ALCOHOLIC STEATOHEPATITIS, AND METHOD OF TREATING PSORIASIS” (Kurume University, priority 2023, published 2026)
